Tested on: Rat
Experiment: concentration in plasma after dosing
Conditions: dosed: Wyeth-14643, Male, Sprague-Dawley

Compound: Cc1cccc(Nc2cc(Cl)nc(SCC(=O)O)n2)c1C
- concentration in plasma (2.5 min, 2.0 mg/kg, iv): 28300 ng/mL
- concentration in plasma (5 min, 2.0 mg/kg, iv): 20700 ng/mL
- concentration in plasma (5 min, 2.0 mg/kg, oral): 270 ng/mL
- concentration in plasma (5 min, 5.0 mg/kg, oral): 520 ng/mL
- concentration in plasma (0.25 h, 1.0 mg/kg, oral): 480 ng/mL
- concentration in plasma (0.25 h, 2.0 mg/kg, iv): 8890 ng/mL
- concentration in plasma (0.25 h, 2.0 mg/kg, oral): 941 ng/mL
- concentration in plasma (0.25 h, 5.0 mg/kg, oral): 2340 ng/mL
- concentration in plasma (0.5 h, 1.0 mg/kg, oral): 493 ng/mL
- concentration in plasma (0.5 h, 2.0 mg/kg, iv): 4960 ng/mL
- concentration in plasma (0.5 h, 2.0 mg/kg, oral): 1350 ng/mL
- concentration in plasma (0.5 h, 5.0 mg/kg, oral): 3240 ng/mL
- concentration in plasma (1 h, 1.0 mg/kg, oral): 548 ng/mL
- concentration in plasma (1 h, 2.0 mg/kg, iv): 2670 ng/mL
- concentration in plasma (1 h, 2.0 mg/kg, oral): 1010 ng/mL
- concentration in plasma (1 h, 5.0 mg/kg, oral): 4080 ng/mL
- concentration in plasma (2 h, 1.0 mg/kg, oral): 373 ng/mL
- concentration in plasma (2 h, 2.0 mg/kg, iv): 682 ng/mL
- concentration in plasma (2 h, 2.0 mg/kg, oral): 466 ng/mL
- concentration in plasma (2 h, 5.0 mg/kg, oral): 1930 ng/mL
- concentration in plasma (3 h, 1.0 mg/kg, oral): 145 ng/mL
- concentration in plasma (3 h, 2.0 mg/kg, iv): 253 ng/mL
- concentration in plasma (3 h, 2.0 mg/kg, oral): 972 ng/mL
- concentration in plasma (4 h, 2.0 mg/kg, iv): 218 ng/mL
- concentration in plasma (4 h, 2.0 mg/kg, oral): 273 ng/mL
- concentration in plasma (4 h, 5.0 mg/kg, oral): 1050 ng/mL
- concentration in plasma (5 h, 1.0 mg/kg, oral): 357 ng/mL
- concentration in plasma (5 h, 2.0 mg/kg, oral): 312 ng/mL
- concentration in plasma (6 h, 2.0 mg/kg, oral): 118 ng/mL
- concentration in plasma (6 h, 5.0 mg/kg, oral): 506 ng/mL
- concentration in plasma (7 h, 1.0 mg/kg, oral): 124 ng/mL
- concentration in plasma (8 h, 2.0 mg/kg, oral): 305 ng/mL
- concentration in plasma (8 h, 5.0 mg/kg, oral): 421 ng/mL
- concentration in plasma (24 h, 5.0 mg/kg, oral): 129 ng/mL

From EPA's CvTdb concentration-time database
